Data: ChEMBL document CHEMBL1129002, “Synthesis and biological evaluation of both enantiomers of L-761,000 as inhibitors of cyclooxygenase 1 and 2” (Bioorg Med Chem Lett, 1996)

Columns and labels:
[1] = target: T1, Prostaglandin G/H synthase 1 (Rattus norvegicus, UniProt Q63921); test: In vitro inhibition of Prostaglandin G/H synthase 1
T1 sequence (Q63921 whole entry): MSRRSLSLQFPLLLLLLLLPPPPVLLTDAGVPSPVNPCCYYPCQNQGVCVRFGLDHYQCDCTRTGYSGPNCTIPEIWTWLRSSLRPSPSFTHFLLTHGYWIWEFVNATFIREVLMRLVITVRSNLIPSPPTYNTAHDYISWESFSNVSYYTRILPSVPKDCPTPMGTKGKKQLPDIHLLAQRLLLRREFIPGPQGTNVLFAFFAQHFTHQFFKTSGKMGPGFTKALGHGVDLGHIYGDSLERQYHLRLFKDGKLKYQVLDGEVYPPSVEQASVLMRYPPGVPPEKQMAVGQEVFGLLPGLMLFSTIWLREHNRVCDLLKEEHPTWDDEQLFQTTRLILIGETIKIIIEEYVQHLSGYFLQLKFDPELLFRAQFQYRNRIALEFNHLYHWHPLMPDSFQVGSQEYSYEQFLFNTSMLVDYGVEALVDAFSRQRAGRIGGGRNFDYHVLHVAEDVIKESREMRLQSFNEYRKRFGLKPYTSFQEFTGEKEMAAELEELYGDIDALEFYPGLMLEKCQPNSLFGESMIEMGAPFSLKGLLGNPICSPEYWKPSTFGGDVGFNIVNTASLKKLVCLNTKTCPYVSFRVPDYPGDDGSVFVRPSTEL

Rattus norvegicus [2] = species on record: Rattus norvegicus; test: Clearance in rat plasma; assay type: functional, organism-based
Rattus norvegicus [3] = test: Compound was evaluated in vivo for its activity in the rat paw edema assay.; assay type: functional
[4] = target: T2, Prostaglandin G/H synthase 2 (Rattus norvegicus, UniProt P35355); test: In vitro inhibition of Prostaglandin G/H synthase 2
T2 sequence (P35355 whole entry): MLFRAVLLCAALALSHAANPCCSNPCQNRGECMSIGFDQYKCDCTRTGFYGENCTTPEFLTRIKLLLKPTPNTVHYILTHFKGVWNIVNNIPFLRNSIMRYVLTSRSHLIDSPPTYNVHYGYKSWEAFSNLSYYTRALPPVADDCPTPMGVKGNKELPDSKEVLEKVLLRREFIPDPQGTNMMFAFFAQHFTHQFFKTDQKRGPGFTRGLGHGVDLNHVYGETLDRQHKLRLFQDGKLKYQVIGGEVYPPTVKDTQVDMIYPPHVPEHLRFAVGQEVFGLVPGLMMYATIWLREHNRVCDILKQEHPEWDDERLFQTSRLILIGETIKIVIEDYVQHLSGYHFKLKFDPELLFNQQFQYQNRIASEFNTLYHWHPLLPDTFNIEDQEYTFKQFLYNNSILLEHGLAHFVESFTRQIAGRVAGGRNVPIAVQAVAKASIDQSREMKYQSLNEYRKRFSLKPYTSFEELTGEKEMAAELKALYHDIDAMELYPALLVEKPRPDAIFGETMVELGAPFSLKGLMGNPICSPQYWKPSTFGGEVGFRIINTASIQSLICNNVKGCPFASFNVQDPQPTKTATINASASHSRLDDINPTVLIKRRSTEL

[5] = Cmax in rat plasma; assay type: ADME, organism-based
Rattus norvegicus [6] = test: Compound was evaluated in vivo for its activity in the rat pyresis assay.; assay type: functional

Structure (SMILES)	IC50 [1] [nM]	CL (mL.min-1.kg-1) (Rattus norvegicus [2])	ED30 (Rattus norvegicus [3]) [mg/kg]	IC50 [4] [nM]	Cmax [5] [µM]	ED50 (Rattus norvegicus [6]) [mg/kg]
COc1ccc2c(c1)c(CC(C)CC(=O)O)c(C)n2Cc1ccc(Br)cc1 (configuration not stated)	> 10000	5.7	0.4	50	–	–
COc1ccc2c(c1)c(C[C@H](C)CC(=O)O)c(C)n2Cc1ccc(Br)cc1	> 10000	21	> 3	20	14.4	–
COc1ccc2c(c1)c(C[C@@H](C)CC(=O)O)c(C)n2Cc1ccc(Br)cc1	> 10000	2.8	0.4	60	24.3	1.9
COc1ccc2c(c1)c(CC(=O)O)c(C)n2C(=O)c1ccc(Cl)cc1 [INDOMETHACIN]	–	–	0.4	–	–	1
